Measured values: ChEMBL document CHEMBL1201862, “PubChem BioAssay data set” (2004)
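Cultured in 96-well plates, cells were exposed to test compound for 48 hours across five concentrations. GI50 marks 50% less growth.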 Active and inactive are the calls of the source. Rule as the data show it: active = GI50 up to about 1.1 µM and inactive = higher.

Assays:
Test in all cases: NCI-60 cell line screen, 48 h
UACC-257 = system: UACC-257
HT-29 = system: HT-29
MDA-MB-435 = system: MDA-MB-435
A549 = system: A549
IGROV-1 = system: IGROV-1
SNB-19 = system: SNB-19
SNB-75 = system: SNB-75
NCI-H23 = system: NCI-H23
MDA-N = system: MDA-N
SW-620 = system: SW-620
M14 = system: M14
A498 = system: A498
NCI-H226 = system: NCI-H226
HOP-92 = system: HOP-92
786-0 = system: 786-0
K562 = system: K562
UACC-62 = system: UACC-62
CCRF-CEM = system: CCRF-CEM
T47D = system: T47D
NCI-H522 = system: NCI-H522

| SMILES | GI50 (UACC-257) | GI50 (HT-29) | GI50 (MDA-MB-435) | GI50 (A549) | GI50 (IGROV-1) | GI50 (SNB-19) | GI50 (SNB-75) | GI50 (NCI-H23) | GI50 (MDA-N) | GI50 (SW-620) | GI50 (M14) | GI50 (A498) | GI50 (NCI-H226) | GI50 (HOP-92) | GI50 (786-0) | GI50 (K562) | GI50 (UACC-62) | GI50 (CCRF-CEM) | GI50 (T47D) | GI50 (NCI-H522) |
| --- | --- | --- | --- | --- | --- | --- | --- | --- | --- | --- | --- | --- | --- | --- | --- | --- | --- | --- | --- | --- |
| CN(C)CCNc1ccc2nnn3c4ccc(O)cc4c(=O)c1c23 | 9.71 µM (inactive) | 4.28 µM (inactive) | 4.07 µM (inactive) | 0.598 µM (active) | 1.96 µM (inactive) | 7.89 µM (inactive) | 9.57 µM (inactive) | 3.75 µM (inactive) | 1.86 µM (inactive) | 1.09 µM (active) | 7.59 µM (inactive) | 3.71 µM (inactive) | 6.31 µM (inactive) | 4.59 µM (inactive) | 2.15 µM (inactive) | 1.61 µM (inactive) | 4.74 µM (inactive) | 1.11 µM (active) | 11.1 µM (inactive) | 3.12 µM (inactive) |
| O=C1C=CC(=O)c2c1ccc1c3ccccc3n(-c3cccc([N+](=O)[O-])c3)c21 | 2.62 µM (inactive) | > 10 µM (inactive) | 2.05 µM (inactive) | > 10 µM (inactive) | 5.81 µM (inactive) | > 10 µM (inactive) | > 10 µM (inactive) | 2.65 µM (inactive) | 2.2 µM (inactive) | 0.804 µM (active) | 1.73 µM (inactive) | 5.85 µM (inactive) | > 10 µM (inactive) | 2.09 µM (inactive) | 1.91 µM (inactive) | 0.367 µM (active) | 2.13 µM (inactive) | 0.357 µM (active) | 2.38 µM (inactive) | 1.91 µM (inactive) |
| CC[C@@]1(O)C(=O)OCc2c1cc1n(c2=O)Cc2c-1nc1ccc(N)cc1c2CC[Si](C)(C)C | < 0.01 µM (active) | < 0.01 µM (active) | < 0.01 µM (active) | < 0.01 µM (active) | < 0.01 µM (active) | < 0.01 µM (active) | < 0.01 µM (active) | < 0.01 µM (active) | < 0.01 µM (active) | < 0.01 µM (active) | < 0.01 µM (active) | < 0.01 µM (active) | < 0.01 µM (active) | < 0.025 µM (active) | < 0.01 µM (active) | < 0.01 µM (active) | < 0.01 µM (active) | < 0.01 µM (active) | < 0.01 µM (active) | < 0.01 µM (active) |
| O=c1oc2cc(/N=C/c3ccccc3Cl)ccc2c2ccccc12 | > 100 µM (inactive) | > 100 µM (inactive) | > 100 µM (inactive) | > 100 µM (inactive) | > 100 µM (inactive) | 97.5 µM (inactive) | > 100 µM (inactive) | > 100 µM (inactive) | > 100 µM (inactive) | > 100 µM (inactive) | > 100 µM (inactive) | > 100 µM (inactive) | > 100 µM (inactive) | > 100 µM (inactive) | > 100 µM (inactive) | 45.9 µM (inactive) | 40.7 µM (inactive) | > 100 µM (inactive) | > 100 µM (inactive) | > 100 µM (inactive) |
| CN1CCc2c(sc3ncn(Nc4ccc(F)cc4)c(=N)c23)C1 | > 100 µM (inactive) | > 100 µM (inactive) | > 100 µM (inactive) | > 100 µM (inactive) | > 100 µM (inactive) | > 100 µM (inactive) | > 100 µM (inactive) | > 100 µM (inactive) | > 100 µM (inactive) | > 100 µM (inactive) | > 100 µM (inactive) | > 100 µM (inactive) | 92 µM (inactive) | > 100 µM (inactive) | > 100 µM (inactive) | > 100 µM (inactive) | > 100 µM (inactive) | > 100 µM (inactive) | > 100 µM (inactive) | 65 µM (inactive) |
| C/C=N\n1c(C)c(C#N)c(C#N)c1N | > 100 µM (inactive) | > 100 µM (inactive) | > 100 µM (inactive) | 34.5 µM (inactive) | > 100 µM (inactive) | > 100 µM (inactive) | > 100 µM (inactive) | > 100 µM (inactive) | > 100 µM (inactive) | > 100 µM (inactive) | > 100 µM (inactive) | > 100 µM (inactive) | > 100 µM (inactive) | > 100 µM (inactive) | > 100 µM (inactive) | > 100 µM (inactive) | > 100 µM (inactive) | > 100 µM (inactive) | > 100 µM (inactive) | > 100 µM (inactive) |
| C[C@]12CC[C@H](O)CC1=CC[C@@H]1[C@@H]2CC[C@]2(C)C(=N/N)/C(=N\O)C[C@@H]12 | > 100 µM (inactive) | 36 µM (inactive) | 2.12 µM (inactive) | > 100 µM (inactive) | 21 µM (inactive) | 35.2 µM (inactive) | 7.5 µM (inactive) | > 100 µM (inactive) | 11.9 µM (inactive) | 60 µM (inactive) | > 100 µM (inactive) | 16.7 µM (inactive) | 74.3 µM (inactive) | 2.42 µM (inactive) | 50.7 µM (inactive) | 14.5 µM (inactive) | 58.5 µM (inactive) | 44.2 µM (inactive) | > 100 µM (inactive) | 31.7 µM (inactive) |
| COC1=CC(=O)c2c(c(COC(C)=O)cn2C)C1=O | 0.334 µM (active) | 0.0261 µM (active) | 0.13 µM (active) | 0.207 µM (active) | 0.184 µM (active) | 0.345 µM (active) | 0.308 µM (active) | 0.0715 µM (active) | 0.0942 µM (active) | 0.0249 µM (active) | 0.0632 µM (active) | 0.244 µM (active) | 0.137 µM (active) | 0.291 µM (active) |  | 0.15 µM (active) | 0.13 µM (active) | 0.234 µM (active) | 0.736 µM (active) | 0.0158 µM (active) |
| CN(C)CCNC(=O)c1cccc2[nH]c(-c3ccncc3)nc12 | 1.83 µM (inactive) | 2.61 µM (inactive) | 1.84 µM (inactive) | 5.78 µM (inactive) | 7.5 µM (inactive) | 10.7 µM (inactive) | 7.33 µM (inactive) | 8.39 µM (inactive) | 1.74 µM (inactive) | 3.19 µM (inactive) | 1.82 µM (inactive) | 4.05 µM (inactive) | 15.2 µM (inactive) | 6.82 µM (inactive) | 2.04 µM (inactive) | 2.64 µM (inactive) | 2.96 µM (inactive) | 2.29 µM (inactive) | 12.7 µM (inactive) | 1.88 µM (inactive) |
| Cc1ccc(/N=N/c2c(O)ccc3cc(S(=O)(=O)O)ccc23)c(C)c1 | > 100 µM (inactive) | > 100 µM (inactive) | > 100 µM (inactive) | > 100 µM (inactive) | > 100 µM (inactive) | > 100 µM (inactive) | > 100 µM (inactive) | > 100 µM (inactive) | > 100 µM (inactive) | > 100 µM (inactive) | > 100 µM (inactive) | > 100 µM (inactive) | > 100 µM (inactive) | > 100 µM (inactive) | > 100 µM (inactive) | > 100 µM (inactive) | > 100 µM (inactive) | > 100 µM (inactive) | > 100 µM (inactive) | > 100 µM (inactive) |
| COC(=O)/C=C1/OC(c2ccc(OC)cc2)=C(Cl)C1=O | 21.6 µM (inactive) | 15.4 µM (inactive) | 15.6 µM (inactive) | 23.7 µM (inactive) | 16.9 µM (inactive) | 23 µM (inactive) | 17.9 µM (inactive) | 17.6 µM (inactive) | 16.7 µM (inactive) | 12.4 µM (inactive) | 16.9 µM (inactive) | 22.5 µM (inactive) | 21.9 µM (inactive) | 23.1 µM (inactive) | 12.1 µM (inactive) | 2.73 µM (inactive) | 17.4 µM (inactive) | 4.78 µM (inactive) | 15.3 µM (inactive) | 14.6 µM (inactive) |
| O=S(=O)(CC(O)C(Cl)(Cl)Cl)NNc1ccccc1 (configuration not stated) | > 100 µM (inactive) | > 100 µM (inactive) | > 100 µM (inactive) | > 100 µM (inactive) | > 100 µM (inactive) | > 100 µM (inactive) | > 100 µM (inactive) | > 100 µM (inactive) | > 100 µM (inactive) | > 100 µM (inactive) | 81.7 µM (inactive) | > 100 µM (inactive) | > 100 µM (inactive) | > 100 µM (inactive) | > 100 µM (inactive) | 23 µM (inactive) | 20.7 µM (inactive) | > 100 µM (inactive) | 81.5 µM (inactive) | > 100 µM (inactive) |
| Cc1c([N+](=O)[O-])ccc2c(NCCCN(C)C)ccnc12 | 17.2 µM (inactive) | 14.2 µM (inactive) | 17.5 µM (inactive) | 19.8 µM (inactive) | 22.2 µM (inactive) |  | 25.4 µM (inactive) | 19 µM (inactive) | 15 µM (inactive) | 17.8 µM (inactive) | 16.3 µM (inactive) | 34 µM (inactive) | 30.4 µM (inactive) | 16.5 µM (inactive) | 26.8 µM (inactive) | 48.6 µM (inactive) | 20.7 µM (inactive) | > 100 µM (inactive) | 25.4 µM (inactive) | 17.3 µM (inactive) |
| CCC1=C(CC2NCCc3cc(OC)c(OC)cc32)CC2c3ccccc3CCN2C1 (configuration not stated) | 18.1 µM (inactive) | 5.56 µM (inactive) | 13.1 µM (inactive) | 26.4 µM (inactive) | 21.2 µM (inactive) | 36.9 µM (inactive) | 19.8 µM (inactive) |  | 14 µM (inactive) | 13.8 µM (inactive) | 14.3 µM (inactive) | 13.2 µM (inactive) | 19 µM (inactive) | 12.8 µM (inactive) | 14 µM (inactive) | 10.1 µM (inactive) | 15.5 µM (inactive) | 10.4 µM (inactive) | 20.7 µM (inactive) | 14.8 µM (inactive) |
